According to PubChem BioAssay AID2060908 (Molecular Pharmacology Branch, DTP, NCI, 2025):

Tested on: 186277-243-T-J2-PDC complex spheroids, viability
Assay: Anticancer human tumor 186277-243-T-J2-PDC patient-derived colon adenocarcinoma cell line growth inhibition [RAS]
Details: for IC50: curve of first compound; for viability, T/C: stronger effect = lower value
Text: RAS pathway inhibitors in Combinations in Complex Spheroids
A high-throughput screen of multi-cell type tumor spheroids was designed to identify active combinations of RAS pathway inhibitors and targeted small molecules. Complex spheroids include a stromal component modeled by human endothelial cells (HUVEC) and fibroblasts modeled by human mesenchymal stem cells (MSCs). The concentration ranges selected for each drug and investigational agent were based upon clinically achievable concentrations if the clinical Cmax of the agent was known.
Compounds. The drugs and investigational agents: abemaciclib (NSC768073), cobimetinib (NSC768068), divarasib (GDC6063, NSC841802), docetaxel (NSC628503), GDC-1971 (RLY-1971, NSC841576), gemcitabine (NSC613327), inavolisib (NSC800729), ipatasertib (NSC767898), KB-0742 (NSC834161), MRTX-1133 (NSC836407), osimertinib (NSC779217), RMC-4630 (NSC839698), RMC-6236 (NSC851965), RMC-6291 (NSC852671), Ro-3306 (NSC812927), sapanisertib (NSC764658), SN-38 (NSC673596), staurosporine (NSC755774), SY5609 (NSC837396), and tovorafenib (DAY101, NSC766906), were obtained from the National Cancer Institute (NCI) Developmental Therapeutics Program Chemical Repository. The FDA-approved anticancer drug set is available from the NCI Developmental Therapeutics Program. […] The stock solutions were prepared in dimethyl sulfoxide (DMSO, Sigma-Aldrich, St. Louis, MO, cat. D2650) at 800-fold the tested concentration and stored at -70 degrees C prior to their use. All drugs and investigational agents were tested over a range starting from a high concentration at or near the clinical Cmax and decreasing in half-log increments. If the clinical Cmax for an agent had not been determined, the highest concentration tested was 10 microM.
Cell Culture. All cells were maintained in an incubator at 37 degrees C and 5% CO2 with 95% humidity. The PDC lines were cultured according to standard operating procedures established by the NCI PDMR. All PDCs were thawed and cultured in Matrigel-coated flasks prepared with a working solution of 1X Ham's F-12 nutrient mix, without supplementation (Invitrogen, Waltham, MA, cat. 11765054), 100 U/mL penicillin-streptomycin (Invitrogen, cat. 15140122), and 2.5% Matrigel (Corning Inc., Corning, NY, cat. 354248) for the first three passages. The 362531-283-R-J2-PDC and 782815-120-R-J1-PDC lines were cultured in 6C/Colon 1B media, which includes advanced DMEM/F-12 (Thermo Fisher Scientific, cat. 12634028), 10 mM HEPES (Thermo Fisher Scientific, cat. 15630080), 1X GlutaMAX supplement (Thermo Fisher Scientific, cat. 35050061), 0.1 mg/mL primocin (InvivoGen, San Diego, CA, cat. ant-pm-2), 10% defined fetal bovine serum, heat inactivated (HyClone Laboratories Inc., Logan, UT, cat. SH30070.03HI), 50% L-WRN conditioned media (ATCC, cat. CRL-3276), 1.25 mM N-Acetyl-L-cysteine (Sigma-Aldrich, cat. A9165), 10 mM nicotinamide (Sigma-Aldrich, cat. N0636), 1X B-27 supplement (Thermo Fisher Scientific, cat. 17504044), 1X N-2 supplement (Thermo Fisher Scientific, cat. 17502048), 50 ng/mL human EGF (Thermo Fisher Scientific, cat. PHG0311), and 10 microM Y-27632 dihydrochloride (Tocris Bioscience, cat. 1254). The K12877-001-R-J1-PDC line was cultured in 6I media, which includes all 6C/Colon 1B media plus 10 ng/mL human FGF-10 (PeproTech, cat. 100-26), 1 ng/mL human FGF-2 (PeproTech, cat. 100-18B), 1 µM prostaglandin E2 (Tocris Bioscience, cat. 2296), […] hydrocortisone (Sigma-Aldrich, cat. H4001), and […] bovine insulin (Sigma-Aldrich, cat. I6634). The K86415-001-R-J1-PDC line was cultured in 6D media, which includes all 6C/Colon 1B media components minus the L-WRN conditioned media. The 485176-168-R4-J1-PDC was cultured in PANC media, which includes all 6C/Colon 1B media plus 100 ng/mL human FGF-10 (PeproTech, cat. 100-26), 500 nM SB-431542 (Selleckchem, cat. S1067), and 10 nM gastrin (Tocris Bioscience, cat. 3006). […]
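Also: spheroids exposed to compounds for 7 days before viability read.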

## CCN1CCN(Cc2ccc(Nc3ncc(F)c(-c4cc(F)c5nc(C)n(C(C)C)c5c4)n3)nc2)CC1 + C#Cc1c(F)ccc2cc(O)cc(-c3ncc4c(N5CC6CCC(C5)N6)nc(OCC56CCCN5CC(F)C6)nc4c3F)c12
Second compound 0.0316 µM
  IC50: 281 nM
Second compound 0.1 µM
  IC50: 14.9 nM
Second compound 0.316 µM
  IC50: < 3.16 nM
Second compound 1 µM
  IC50: < 3.16 nM
Second compound 3.16 µM
  IC50: < 3.16 nM
Second compound 10 µM
  IC50: < 3.16 nM
Second compound 0.0316 µM, first compound 0.00316 µM
  viability, T/C: 84.9%
Second compound 0.0316 µM, first compound 0.01 µM
  viability, T/C: 69.9%
Second compound 0.0316 µM, first compound 0.0316 µM
  viability, T/C: 66.7%
Second compound 0.0316 µM, first compound 0.1 µM
  viability, T/C: 67.2%
Second compound 0.0316 µM, first compound 0.316 µM
  viability, T/C: 49.2%
Second compound 0.0316 µM, first compound 1 µM
  viability, T/C: 22%
Second compound 0.1 µM, first compound 0.00316 µM
  viability, T/C: 65%
Second compound 0.1 µM, first compound 0.01 µM
  viability, T/C: 55.3%
Second compound 0.1 µM, first compound 0.0316 µM
  viability, T/C: 41.7%
Second compound 0.1 µM, first compound 0.1 µM
  viability, T/C: 31.1%
Second compound 0.1 µM, first compound 0.316 µM
  viability, T/C: 24%
Second compound 0.1 µM, first compound 1 µM
  viability, T/C: 16.7%
Second compound 0.316 µM, first compound 0.00316 µM
  viability, T/C: 28.9%
Second compound 0.316 µM, first compound 0.01 µM
  viability, T/C: 25.2%
Second compound 0.316 µM, first compound 0.0316 µM
  viability, T/C: 21.7%
Second compound 0.316 µM, first compound 0.1 µM
  viability, T/C: 16.6%
Second compound 0.316 µM, first compound 0.316 µM
  viability, T/C: 16.9%
Second compound 0.316 µM, first compound 1 µM
  viability, T/C: 13.1%
Second compound 1 µM, first compound 0.00316 µM
  viability, T/C: 13.1%
Second compound 1 µM, first compound 0.01 µM
  viability, T/C: 16.7%
Second compound 1 µM, first compound 0.0316 µM
  viability, T/C: 14.2%
Second compound 1 µM, first compound 0.1 µM
  viability, T/C: 11.6%
Second compound 1 µM, first compound 0.316 µM
  viability, T/C: 15.6%
Second compound 1 µM, first compound 1 µM
  viability, T/C: 11.4%
Second compound 3.16 µM, first compound 0.00316 µM
  viability, T/C: 12.8%
Second compound 3.16 µM, first compound 0.01 µM
  viability, T/C: 10.5%
Second compound 3.16 µM, first compound 0.0316 µM
  viability, T/C: 9.68%
Second compound 3.16 µM, first compound 0.1 µM
  viability, T/C: 10.6%
Second compound 3.16 µM, first compound 0.316 µM
  viability, T/C: 11.5%
Second compound 3.16 µM, first compound 1 µM
  viability, T/C: 10.6%
Second compound 10 µM, first compound 0.00316 µM
  viability, T/C: 10.4%
Second compound 10 µM, first compound 0.01 µM
  viability, T/C: 8.81%
Second compound 10 µM, first compound 0.0316 µM
  viability, T/C: 10.7%
Second compound 10 µM, first compound 0.1 µM
  viability, T/C: 9.4%
Second compound 10 µM, first compound 0.316 µM
  viability, T/C: 9.61%
Second compound 10 µM, first compound 1 µM
  viability, T/C: 7.42%
